Test [1] concerns MDA-MB- 231. The test is described as follows: Cell viability assay (CellTiter-Blue, 72 hr). In kind it is cell-based, Human. The procedure: (§1) Cancer cell lines were seeded in 96 well tissue culture plate at a low density (10,000 cells per well) and treated with varying concentrations of Eggmanone. After 72 hr incubation, CellTiter-Blue Cell Viability Assay (Promega, Madison, Wis.) was then performed according to manufacturer's protocol. Absorbance was then measured in a Modulus Microplate reader (Promega, Madison, Wis.) at 590 nm and compared to cells treated with DMSO.
(§2) Cancer cell lines were seeded in 96 well tissue culture plate at a low density and treated with varying concentrations of compounds identified in Table 7. After 72 hr incubation, CellTiter-Blue Cell Viability Assay (Promega, Madison, Wis.) was then performed according to manufacturer's protocol. Absorbance was then measured in a Modulus Microplate reader (Promega, Madison, Wis.) at 590 nm and compared to cells treated with DMSO.
For orientation: The colour change of resazurin is a common sign of viable cells or microbes.

For test [2], the system named is RWGT2. The test is described as follows: Cell viability assay (CellTiter-Blue, 72 hr). In kind it is cell-based, Human. How it is done:
as §1, §2

Test [3] deals with DaoY. The test is described as follows: Cell viability assay (CellTiter-Blue, 72 hr). It counts as cell-based, Human. How it is done:
as §1, §2

For test [4], the system named is RKO. Description: Cell viability assay (CellTiter-Blue, 72 hr). It counts as cell-based, Human. The settings on record: for EC50: RKO, human cancer cells, read-out: CELL KILLING EC50 (μM) Colon RKO. The procedure:
as §1, §2

For test [5], the system named is HCT116. Description: Cell viability assay (CellTiter-Blue, 72 hr). It counts as cell-based, Human. How it is done: as §1, §2
Test [6] concerns Hedgehog signaling (TM3-Gli-Luc). The test is described as follows: TM3-Gli-Luc luciferase reporter assay stimulated with 20 nM SAG. In kind it is cell-based. In short, it runs like this:
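TM3-Gli-Luc cells on 0.1% gelatin in DMEM/F12 with 2.5% FBS, treated 48 h with compound plus 20 nM SAG. Steady-Glo luminescence normalized to CellTiter-Glo viability, DMSO-only (no SAG) background subtracted, percent of SAG control. EC50 averaged from ≥2 independent days ±SEM.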
In general terms: A reporter such as luciferase makes a cellular process visible.

The subject of test [7] is B16F11. The test is described as follows: Cell viability assay (CellTiter-Blue, 72 hr). In kind it is cell-based, Mouse. How it is done: as §1, §2
In test [8] the test system is PC3. Description: Cell viability assay (CellTiter-Blue, 72 hr). It counts as cell-based. The note with it: for EC50: PC-3, human cancer cells, read-out: CELL KILLING EC50 (μM) Prostate PCx3. The procedure:
as §1

The test system of test [9] is Gli1 mRNA. Description: Hh % Inh.: SAG-induced Gli1 expression in C3H10T½ cells (qPCR). It counts as cell-based. The note with it: Mus musculus, C3H 10T1/2, SAG-induced (100 nM), 24 hours; for inhibition at 1 µM: 1 pM [sic], read-out: C3H10T1/2 qPCR, Gh1 mRNA % Inh., 1 pM; for inhibition at 10 µM: 10 pM [sic], read-out: C3H10T1/2 qPCR, Gh1 mRNA % Inh., 10 pM; for EC50: read-out: C3H10T1/2 qPCR, Gh1 mRNA EC50. How it is done: Compounds are dosed from 10 mM DMSO stock solutions, and mRNA is isolated after 24 hours of compound treatment. mRNA is reverse transcribed to produce cDNA which is quantified by quantitative polymerase chain reaction (qPCR) in triplicate and levels are normalized to GAPDH levels. Data is presented as percent inhibition compared to positive control (SAG).
For orientation: Real-time PCR tracks product formation cycle by cycle.

Where [10] appears, read: MDA-MB-231, human cancer cells, read-out: CELL KILLING EC50 (μM) Breast MDA-231.
[11] abbreviates: human cancer cells, read-out: CELL KILLING EC50 (μM) Lung Squam, NSCLC RWGT2.
Setting [12] is: Daoy, human cancer cells, read-out: CELL KILLING EC50 (μM) Medulloblastoma DaoY.
Where [13] appears, read: HCT-116, human cancer cells, read-out: CELL KILLING EC50 (μM) Colon HTC116.
[14] abbreviates: Table 9A, read-out: TM3 G8 Luciferase EC 50.
The mark [15] stands for this setting: Mus musculus, B16-F10, Table 10, read-out: CELL KILLING EC50 (μM) Melanoma B16F10.
Setting [16] is: 20 nM SAG, mean ± standard error of the mean, read-out: TM3-Gli-Luc EC50.
Setting [17] is: TM3-Gli-Luc reporter line stimulated with 20 nM SAG, mean ± SEM, Table 14, read-out: TM3-Gli-Luc EC50.

Each structure is given as a SMILES string. “Also recorded” adds a separate entry of the source. Like-named read-outs stand apart in the source and are kept apart here.

As to `C=C(C)Cn1c(SCC(=O)c2cccs2)nc2sc3c(c2c1=O)CCCC3` [EGM, Eggmanone], the EC50 in test [1] (setting [10]) stood at 2.05 µM; in test [2] (setting [11]), 6.87 µM; in test [3] (setting [12]), 31.5 µM; in [4] it was 54.3 µM; in [5] (setting [13]), 11.4 µM; in test [6] (setting [14]) it was 1.35 µM. Also, the EC50 worked out at 2.22 µM in test [7] (setting [15]), 77.2 µM in [8] and 1.41 µM in test [9]. Also, in test [9], the inhibition at 1 µM is 53.3%. Moreover, the inhibition at 10 µM in [9] stood at 92.7%.
`C=C(C)Cn1c(SCC(=O)c2cccs2)nc2sc3c(c2c1=O)CCCC3` [Eggmanone, 3-(2-methylallyl)-2-((2-oxo-2-(thiophen-2-yl)ethyl)thio)-5,6,7,8-tetrahydrobenzo[4,5]thieno[2,3-d]pyrimidine-4(3H)-one]: the EC50 turned out to be 2.05 µM in test [1] (72 h, read-out: EC50 (50% reduction of viable cell count at 72 hours), MDA-MB- 231, Human Breast Adenocarcinoma); 6.87 µM in test [2] (72 h, read-out: EC50 (50% reduction of viable cell count at 72 hours), RWGT2, Human Lung Carcinoma); 2.05 µM in test [7] (72 h, read-out: EC50 (50% reduction of viable cell count at 72 hours), B16F11, Mouse Melanoma). The “Viability of Daoy medulloblastoma cells” value in test [3] was “potently and preferentially reduced the viability; also recorded: significantly inhibited”; in test [3] (listed as eggmanone), “potently and preferentially reduced the viability”. The “Effect on RKO colon cancer cell line” value in test [4] was “significantly inhibited”. Moreover, in [5], the “Effect on HCT116 colon cancer cell line” value is listed as “significantly inhibited”. Also, the “Effect on PC3 prostate cancer cell line” value in test [8] is on record as “is affected”.
On to `CCCn1c(SCC(=O)c2cccs2)nc2sc3c(c2c1=O)CCCC3` [Formula 9e], for which the EC50 in test [6] (setting [16]) and in [6] (setting [17]) was 1.3 ± 0.18 µM in each case.
As for `C=C(C)Cn1c(SCC(=O)c2ccccc2)nc2sc3c(c2c1=O)CCCC3` [Formula 9g], the “Hh inhibitory activity / potency in words” value in test [6] (20 nM SAG) is “modest potency”. Further, the EC50 in test [6] (setting [16]) and in test [6] (setting [17]) was 5.7 ± 2.1 µM throughout.
For the compound `O=C(CSc1nc2sc3c(c2c(=O)n1C1CC1)CCCC3)c1cccs1` [JEH-3-039-2], in test [6] (setting [14]), the EC50 was 0.476 µM. In test [9], the inhibition at 1 µM was determined as 49.3%, the inhibition at 10 µM came to 89.1% and the EC50 came to 0.593 µM.
Take `C=CCn1c(SCC(=O)c2cccs2)nc2sc3c(c2c1=O)CCCC3` [JEH-3-039-3]: the EC50 is 1.74 µM in test [1] (setting [10]); 5.07 µM in test [2] (setting [11]); 34 µM in [3] (setting [12]); 306 µM in [4]; 54.5 µM in [5] (setting [13]); 3.02 µM in [6] (setting [14]). For the same compound, the EC50 in test [7] (setting [15]) is 3.69 µM; in test [8], 50.1 µM. Besides, in [9], the inhibition at 1 µM turned out to be 64.9%. Moreover, the inhibition at 10 µM in [9] was 66.5%.
As to `C=C(C)Cn1c(SCC(=O)c2ccccc2)nc2sc3c(c2c1=O)CCCC3` [JEH-3-045-1], the EC50 in [6] (setting [14]) was determined as 8.49 µM. For the same compound, in test [9], the inhibition at 1 µM was 58.1%, the inhibition at 10 µM is 95.4% and the EC50 amounted to 0.809 µM.
Consider `C=C(C)Cn1c(SCC(=O)c2ccncc2)nc2sc3c(c2c1=O)CCCC3` [JEH-3-048-1], for which the EC50 is 6.82 µM in [1] (setting [10]); 40.2 µM in test [2] (setting [11]); 0.057 µM in test [3] (72 h, read-out: EC50 (50% reduction of viable cell count at 72 hours), DaoY, Human Cerebellar Medulloblastoma); 0.0574 µM in [3] (setting [12]); 52.9 µM in test [4]; 87.9 µM in test [5] (setting [13]). The EC50 in test [6] (setting [14]) amounted to 19 µM; in test [7] (setting [15]), 14.2 µM; in test [8], 81.2 µM. In addition, the inhibition at 10 µM in test [9] is 28.7%.
Regarding `C=C(C)Cn1c(SCC(=O)c2ccccn2)nc2sc3c(c2c1=O)CCCC3` [JEH-3-063], the EC50 came to 4.46 µM in test [1] (setting [10]); 23.7 µM in test [2] (setting [11]); 15.3 µM in test [3] (setting [12]); 7.18 µM in [4]; 3.82 µM in test [5] (HCT-116, 72 h, read-out: EC50 (50% reduction of viable cell count at 72 hours), HCT116, Human Colorectal Carcinoma); 3.82 µM in test [5] (setting [13]). Moreover, the values for the EC50 in test [6] (setting [14]), in test [7] (setting [15]) and in test [8] were 39.8 µM, 2.29 µM and 100 µM, respectively. Also, the inhibition at 10 µM in [9] is 35.4%.
On to `C=C(C)Cn1c(SCC(=O)c2nccs2)nc2sc3c(c2c1=O)CCCC3` [JEH-3-069-1], for which the EC50 was determined as 14 µM in test [1] (setting [10]); 27.6 µM in test [2] (setting [11]); 26.9 µM in test [3] (setting [12]); 38.3 µM in [4]; 22.9 µM in test [5] (setting [13]); 32.5 µM in test [6] (setting [14]). For the same compound, the EC50 in [7] (setting [15]) worked out at 16.1 µM; in test [8] it was 69.7 µM. The inhibition at 10 µM in test [9] amounted to 42.8%.

The values above are taken from patent publication US10329304B2, “Compounds and methods for inhibition of hedgehog signaling and phosphodiesterase” (Vanderbilt University, priority 2014, dated 2019).
